From patent publication US8648045B2, “VDAC1 compositions and methods of use thereof for regulating apoptosis” (Ben Gurion University of the Negev Research and Development …, priority 2005, dated 2014)
Like-named read-outs stand apart in the source and are kept apart here. One block for each compound: values may come before it. Peptide text beside a SMILES is read from it.

Key:
B-16 = assay: Apoptosis induction by various stimuli (acridine orange/ethidium bromide staining); format: cell-based, mouse
Procedure: (§1) Cells were plated at a density of 5.4×10^4 cells/cm^2 in 24-well plates, washed once with PBS and placed in serum-free medium. Cells were then incubated with or without RuR or Ru360. Cells were also treated with […] staurosporine (STS) to induce apoptosis and analyzed for viability 3, 5 and 7 hrs after STS addition. Treatments with curcumin (120 μM) or As2O3 (20 μM) were carried out for 48 hrs.
(§2) To determine cell viability, cells were stained with 100 μg/ml acridine orange (AcOr) and 100 μg/ml ethidium bromide (EtBr) in PBS. Cells were centrifuged at 1500×g for 5 min at room temperature and resuspended in 25 μl of complete medium, to which 2 μl of AcOr/EtBr solution were added. The cells were then visualized by fluorescence microscopy (Olympus IX51) and images were recorded on an Olympus DP70 camera, using a SWB filter.
(§3) Cells were incubated with curcumin (120 μM) or As2O3 (20 μM) for 48 hrs, or with STS (1.25 μM) for 7 hrs. Cell viability was analyzed by acridine orange/ethidium Bromide staining. In each independent experiment, approximately 250 cells were counted for each treatment, in which early and late apoptotic cells were also counted. The data shown in table 3 is the mean±S.E.M. (n=3).

Du-145 = assay: as above; format: cell-based, human
Procedure: as §1, §2, §3

HeLa = assay: as above; format: cell-based, human
Procedure: as §1, §2, §3

Panc = assay: as above; format: cell-based, human
Procedure: as §1, §2, §3

[1] = test system: PBMCs isolated from CLL patients; format: cell-based, human
Procedure: Peripheral blood mononuclear cells (PBMCs) were isolated from venous blood of patients with chronic lymphocytic leukemia (CLL) by Ficoll-Paque PLUS (GE Healthcare, Israel) density gradient centrifugation. After informed consent, venous blood (10 ml) was drawn from CLL patients satisfying diagnostic criteria for CLL or from normal adult donors. Blood was collected into heparin tubes and diluted 1:1 with balance solution (composed of two stock solutions, A and B, in 1:9 ratio, respectively. Solution A contained: D-glucose 1%, CaCl2 5×10^−5M, MgCl2 9.8×10^−4M, KCl 5.4×10^−3M, Tris 0.145M, pH 7.6. Solution B contained NaCl 0.14M. The balance solution was prepared freshly every week. The diluted blood sample was subsequently carefully layered on Ficoll-Paque Plus (10 ml of diluted blood: 15 ml Ficoll) in 50 ml conical tubes. Tubes were centrifuged at 400×g (with minimal acceleration and deceleration) for 40 minutes at 18-20° C. The mononuclear cells fine layer was transferred to a new centrifuge tube. Cells were washed 3 times with balance solution and re-suspended in a culture medium appropriate to the application.
(§4) PBMCs (2×10^6 cells/sample) from CLL patients and healthy donors were treated with various concentrations of the peptide Antp-LP4-trp for 90 minutes. Cells were then gently washed once with PBS and stained with propidium iodide (PI) by adding 2.5 μl (1 mg/ml) and immediately analyzed for cell death. The level of cell death, reflected by the percentage of PI-positive cells, was determined by a flow cytometry analysis.
(§5) Preipheral blood mononuclear cells (PMBC) isolated from pateints having chronic lymphocytic leukemia (CLL) and MEC-1 cell lines (human chronic B-cell leukemia) were incubated for 90 min with Peptide N-ANTP (SEQ ID NO:73) at concentrations of 10-40 μM. Cell death was measured by PI staning and FACS analysis.
In ex vivo experiments, peripheral blood mononuclear cells (PBMCs) isolated from healthy individuals or CLL patients were incubated for 90 min with the indicated concentration of the ANTP-LP4-trp peptide. Cell death was assayed by PI staining and FACS analysis (healthy donors, n=34; CLL donors, n=39).

MEC-1 cell line = format: cell-based, human
Procedure: as §4, §5

U937 cells [2] = assay: HK-I over-expression protection against apoptotic cell death in double-transfected cells; format: cell-based, human; conditions: U937 or T-Rex 293 cells stably over-expressing HK-I, mVDAC1-GFP constructs
Procedure: U937 cells were transfected with pcDNA3.1-HisA or pcDNA3.1-HisA-HK-I (neomycin resistance; provided by Dr. J. E. Wilson, University of Michigan) by electroporation, and grown in complete RPMI 1640 with neomycin ([…]). After 12 days, the selected cells were transfected with pEGFP, pEGFP-mVDAC1 or pEGFP-E72Q-mVDAC1 and were grown in the presence of neomycin ([…]). The viability of double-transfected cells was analyzed during 48 to 76 hr.
The effect of HK-I over-expression on apoptotic cell death of the GFP-tagged version of native and E72Q-mVDAC1 over-expressing cells was examined.
Since VDAC1 overexpression induces cell death, U937 cells (FIG. 4A, 4B) or T-Rex™ 293 human embryonic kidney cells (FIG. 4B) were first transformed to stably over-express HK-I and then transfected with native, E65Q, E72Q, K73L, D77N, N75A, or G67A mutated mVDAC1-GFP. […] This β-loop includes amino acid residues T64 to about N78.

U937 cells [3] = assay: Apoptotic cell death of U937 cells transfected with native or mutated mVDAC1, with/without RuR (acridine orange/ethidium bromide staining); format: cell-based, human
Procedure: Logarithmically-growing U937 cells were resuspended in RPMI 1640 supplemented with 10% FCS, 100 U/ml penicillin and […] streptomycin at a concentration of 2.5×10^7 cells/ml. Cells were transfected to express rat or murine VDAC1 using the vectors pEGFP, pEGFP-VDAC1, pEGFP-E72Q-mVDAC1, pE-mVDAC1 or pE-E72Q-mVDAC1. Transfection of the U937 cells was performed by electroporation with a single pulse from a Bio-Rad micropulser II with a capacitance extender unit (200 V, […]). Cells were incubated on ice for 10 min before and after transfection, and then resuspended in 20 ml of RPMI 1640 supplemented with 10% FCS, 1 mM l-glutamine, 100 U/ml penicillin and […] streptomycin. […] GFP-positive cells were viewed under a microscope using a blue filter.
as §1
Fifty six (56) hr after transfection, cells were exposed for 20 hr to RuR (1 μM) and cell viability was analyzed using acridine orange/ethidium bromide staining. In each independent experiment, approximately 250 cells were counted for each including early and late apoptotic cells. Data shown in FIG. 5 and Table 2 are the mean±SEM (n=3).

Compound: O=[As]O[As]=O (centres unmarked) [As2O3]
Apoptotic cell death, % of control (B-16; As2O3 20 μM, 48 hrs): 15.0 ± 1.99 % of control
Apoptotic cell death, % of control (Du-145; As2O3 20 μM, 48 hrs): 6.0 ± 0.80 % of control
Apoptotic cell death, % of control (HeLa; As2O3 20 μM, 48 hrs): 24.67 ± 2.65 % of control
Apoptotic cell death, % of control (Panc; As2O3 20 μM, 48 hrs): 67.20 ± 3.87 % of control

Compound: COc1cc(/C=C/C(=O)CC(=O)/C=C/c2ccc(O)c(OC)c2)ccc1O [Curcumin, curcumin]
Apoptotic cell death, % of control (B-16; curcumin 120 μM, 48 hrs): 37.47 ± 2.20 % of control
Apoptotic cell death, % of control (Du-145; curcumin 120 μM, 48 hrs): 8.93 ± 0.47 % of control
Apoptotic cell death, % of control (HeLa; curcumin 120 μM, 48 hrs): 36.2 ± 0.70 % of control
Apoptotic cell death, % of control (Panc; curcumin 120 μM, 48 hrs): 70.77 ± 4.31 % of control

Compound: CN[C@@H]1C[C@H]2O[C@@](C)([C@@H]1OC)n1c3ccccc3c3c4c(c5c6ccccc6n2c5c31)C(=O)NC4 [STS, staurosporine]
Apoptotic cell death, % of control (B-16; STS 1.25 μM, 7 hrs): 63.12 ± 0.71 % of control
Apoptotic cell death, % of control (Du-145; STS 1.25 μM, 7 hrs): 13.57 ± 4.73 % of control
Apoptotic cell death, % of control (HeLa; STS 1.25 μM, 7 hrs): 72.37 ± 1.30 % of control
Apoptotic cell death, % of control (Panc; STS 1.25 μM, 7 hrs): 84.90 ± 2.06 % of control

Compound: CC(C)C[C@H](NC(=O)[C@H](CC(N)=O)NC(=O)[C@@H](NC(=O)[C@H](C)NC(=O)[C@@H](NC(=O)[C@H](CCC(=O)O)NC(=O)[C@H](CC(C)C)NC(=O)[C@H](CCCCN)NC(=O)[C@H](CCCCN)NC(=O)[C@H](CCC(=O)O)NC(=O)[C@H](Cc1c[nH]c2ccccc12)NC(=O)[C@@H](NC(=O)[C@H](Cc1c[nH]c2ccccc12)NC(=O)[C@H](CO)NC(=O)CNC(=O)CNC(=O)[C@H](CCCNC(=N)N)NC(=O)[C@H](CCCNC(=N)N)NC(=O)[C@H](CCCNC(=N)N)NC(=O)[C@H](CCC(N)=O)NC(=O)[C@H](CCCNC(=N)N)NC(=O)[C@H](CCCNC(=N)N)NC(=O)[C@H](CCCCN)NC(=O)[C@H](CCCCN)NC(=O)[C@@H](N)CCCNC(=N)N)[C@@H](C)O)[C@@H](C)O)C(C)C)C(=O)N[C@@H](C)C(=O)N[C@@H](Cc1c[nH]c2ccccc12)C(=O)N[C@H](C(=O)N[C@@H](C)C(=O)NCC(=O)N[C@@H](CC(N)=O)C(=O)N[C@@H](CO)C(=O)N[C@@H](CC(N)=O)C(=O)N[C@@H](CCCCN)C(=O)N[C@@H](Cc1c[nH]c2ccccc12)C(=O)N[C@H](C(=O)N[C@@H](Cc1c[nH]c2ccccc12)C(=O)N[C@@H](CCCCN)C(=O)O)[C@@H](C)O)[C@@H](C)O [TAT-LP4-trp] (H-RKKRRQRRRGGSWTWEKKLETAVNLAWTAGNSNKWTWK-OH; N-terminus and C-terminus assumed)
IC50 ([1]; peptide concentration required to induce apoptosis in 50% of the cells, PBMC from CLL patients, read-out: IC50 μM CLL): 3.5 to 4 µM
IC50 (MEC-1 cell line; peptide concentration required to induce apoptosis in 50% of the cells, MEC-1, read-out: IC50 μM MEC-1): 6 to 7 µM

IC50 (MEC-1 cell line): 2.4 to 3 µM
Compound: CC[C@H](C)[C@H](NC(=O)[C@H](C)NC(=O)[C@@H](N)Cc1c[nH]cn1)C(=O)N[C@@H](Cc1ccc(O)cc1)C(=O)N1CCC[C@H]1C(=O)N[C@@H](CCCNC(=N)N)C(=O)N[C@@H](Cc1c[nH]cn1)C(=O)N[C@@H](CO)C(=O)N[C@@H](Cc1c[nH]c2ccccc12)C(=O)N[C@H](C(=O)N[C@@H](Cc1c[nH]c2ccccc12)C(=O)N[C@@H](CCC(=O)O)C(=O)N[C@@H](CCCCN)C(=O)N[C@@H](CCCCN)C(=O)N[C@@H](CC(C)C)C(=O)N[C@@H](CCC(=O)O)C(=O)N[C@H](C(=O)N[C@@H](C)C(=O)N[C@H](C(=O)N[C@@H](CC(N)=O)C(=O)N[C@@H](CC(C)C)C(=O)N[C@@H](C)C(=O)N[C@@H](Cc1c[nH]c2ccccc12)C(=O)N[C@H](C(=O)N[C@@H](C)C(=O)NCC(=O)N[C@@H](CC(N)=O)C(=O)N[C@@H](CO)C(=O)N[C@@H](CC(N)=O)C(=O)N[C@@H](CCCCN)C(=O)N[C@@H](Cc1c[nH]c2ccccc12)C(=O)N[C@H](C(=O)N[C@@H](Cc1c[nH]c2ccccc12)C(=O)N[C@@H](CCCCN)C(=O)O)[C@@H](C)O)[C@@H](C)O)C(C)C)[C@@H](C)O)[C@@H](C)O [Tf-LP4-trp]
IC50 [1]: 1.5 to 2 µM

Compound: D77N-mVDAC1: VDAC1 polypeptide variant D77N [Peptide D77N-mVDAC1]
protective effect of HK-I over-expression against cell death induced by mVDAC1 over-expression (U937 cells [2]): no protective effect

Compound: E65Q-mVDAC1: VDAC1 polypeptide variant E65Q [Peptide E65Q-mVDAC1]
protective effect of HK-I over-expression against cell death induced by mVDAC1 over-expression (U937 cells [2]): no protective effect

Compound: E72Q-mVDAC1: VDAC1 polypeptide variant E72Q [Peptide E72Q-mVDAC1]
protective effect of HK-I over-expression against cell death induced by mVDAC1 over-expression (U937 cells [2]): no protective effect

Compound: E72Q-mVDAC-GFP: GFP-tagged E72Q mVDAC1 variant
% of protection (U937 cells [3]; protection by RuR (1 μM) against apoptosis of transfected U937 cells): 0%
Apoptotic cells, % −RuR (U937 cells [3]; transfected U937 cells, without RuR, mean±SEM (n=3)): 71.9 ± 4.7%
Apoptotic cells, % +RuR (U937 cells [3]; transfected U937 cells, 56 hr after transfection exposed 20 hr to RuR (1 μM), mean±SEM (n=3)): 71.6 ± 4.4%

Compound: E202Q-mVDAC1: VDAC1 polypeptide variant E202Q [Peptide E202Q-mVDAC1]
protective effect of HK-I over-expression against cell death induced by mVDAC1 over-expression (U937 cells [2]): no protective effect

Compound: G67A-mVDAC1: VDAC1 polypeptide variant G67A [Peptide G67A-mVDAC1]
protective effect of HK-I over-expression against cell death induced by mVDAC1 over-expression (U937 cells [2]): dramatically reduced

Compound: K73L-mVDAC1: VDAC1 polypeptide variant K73L [Peptide K73L-mVDAC1]
protective effect of HK-I over-expression against cell death induced by mVDAC1 over-expression (U937 cells [2]): no protective effect

Compound: N75A-mVDAC1: VDAC1 polypeptide variant N75A [Peptide N75A-mVDAC1]
protective effect of HK-I over-expression against cell death induced by mVDAC1 over-expression (U937 cells [2]): dramatically reduced
